The text below walks through data of ChEMBL document CHEMBL1158877, “Sesquiterpenoids of the drimane class from a sponge of the genus Dysidea” (J Nat Prod, 1997).

Active and inactive are the calls of the source. The rule behind the calls is not given here.

In general, IC50 refers to the midpoint of a concentration-inhibition curve. A low value points to greater potency in that assay.

Test [1] concerns Photobacterium leiognathi. Nature of the test: Antimicrobial activity against Photobacterium leiognathi by bioluminescence. The class given is functional, organism-based.
The nature of test [2]: Inhibition of PLA2.
Test [3] deals with Photobacterium leiognathi. Description: Antimicrobial activity against Photobacterium leiognathi at 10 ug/ml by paper disk method. Type of test: functional.
Test [4] in a line: Inhibition of Na+/K+-ATPase.

In the case of `CC(=O)OC[C@H]1CC[C@H]2C(C)(C)CCC[C@]2(C)[C@H]1COC(C)=O`, the outcome in test [1], in test [2], in test [3] and in test [4] was inactive.

Take `CO[C@@H]1OC[C@H]2CC[C@H]3C(C)(C)CCC[C@]3(C)[C@H]21`: the IC50 in test [1] worked out at 90 µM. Also, the outcome in test [2], in test [3] and in test [4] was inactive.

In test [1], `CC(=O)O[C@@H]1OC=C2CC[C@H]3C(C)(C)CCC[C@]3(C)[C@H]21` gave an IC50 of 90 µM. For the same molecule, the result in test [2], in test [3] and in test [4] was inactive.

For the molecule `CC(=O)O[C@@H]1OC(=O)C2=C1[C@@]1(C)CCCC(C)(C)[C@@H]1CC2`, the outcome in test [1], in test [2] and in test [3] was inactive. This molecule displayed an IC50 in test [4] of 98 µM.

Regarding `CO[C@@H]1O[C@H](O)[C@@]2(O)CC[C@H]3C(C)(C)CCC[C@]3(C)[C@@H]12`, the result in test [1], in test [2], in test [3] and in test [4] was inactive.

Regarding `CC1(C)CCC[C@]2(C)/C(=C/O)C(=O)CC[C@@H]12`, the result in test [1], in test [2], in test [3] and in test [4] was inactive.

For `CC1(C)CCC[C@]2(C)[C@H]3C(=O)OC[C@@H]3CC[C@@H]12`, the IC50 is 90 µM in test [1], 113 µM in test [2] and 45 µM in test [4]. In addition, in test [3], the outcome was inactive.

Consider `CC1(C)CCC[C@]2(C)[C@@H](C=O)C(C=O)=CC[C@@H]12` [POLYGODIAL], for which the IC50 in test [1] was determined as 11.4 µM; in test [4], 82 µM. Moreover, the result in test [2] was inactive. Besides, the zone of inhibition at 10 µg/mL in test [3] (read-out: IZ) came out at 8 mm.

As to `CC(=O)OC[C@H]1[C@@H](OC(C)=O)CC[C@H]2C(C)(C)CCC[C@]12C`, half-maximal inhibition in test [1] (IC50) was put at 90 µM. Further, the outcome in test [2], in test [3] and in test [4] was inactive.

With `CC(=O)O[C@@H]1OC(=O)C2=CC[C@H]3C(C)(C)CCC[C@]3(C)[C@H]21`, the outcome in test [1], in test [2], in test [3] and in test [4] was inactive.
